Experimental data as given in US8329689B2 (priority 2006, dated 2012).
Counter-ions that a name gives are not always drawn. Like-named read-outs stand apart in the source and are kept apart here.

What was measured:
virus influenza A = assay: microbe, parasite or virus in culture; assay type: cell-based; parameters: dose or concentration left out as unconfirmed; details: for inhibition: Influenza A virus, MDCK, dilution of virus 10^-3, read-out: % of inhibition of influenza A virus reproduction
in vitro = details: human
[1] = tested on: virus of hepatitis C strain JFH-1 (genotype 2a); assay: microbe, parasite or virus in culture; assay type: cell-based; details: for Therapeutic index SI50 = TC50/IC50: HCV; for IC50: Hepatitis C virus, Huh-7.5.1, Huh7.5.1 cells, HCV JFH-1, 72 hours incubation, read-out: IC50 (IC50^HCV, antiviral activity)
[2] = tested on: some other cellular lines; details: cited from earlier work
influenza virus = details: cited from earlier work

| SMILES | inhibition (virus influenza A) [%] | other results |
| --- | --- | --- |
| CCOC(=O)c1c(CSc2ccccc2)n(C)c2cc(-c3cccnc3)c3c(c12)CN(C)CO3 [1.2.2(8)] | 100 | – |
| CCOC(=O)c1c(CN2CCN(C)CC2)n(-c2ccccc2)c2ccc3c(c12)CN(C)CO3 [1.2(1)] | < 50 | – |
| CCOC(=O)c1c(CSc2cccs2)n(C)c2cc(Br)c3c(c12)CN(C)CO3 [1.2(47)] | 100 | – |
| CCOC(=O)c1c(CSc2nc3ccccc3s2)n(-c2ccccc2)c2cc(Br)c3c(c12)CN(C)CO3 [1.2(34)] | < 50 | – |
| CCOC(=O)c1c(CN2CCC(C)CC2)n(Cc2ccccc2)c2cc(Br)c3c(c12)CN(C)CO3 [1.2(12)] | 85 | – |
| CCOC(=O)c1c(CSc2ccccc2)n(C)c2cc(C#N)c3c(c12)CN(C)CO3 [1.2(27)] | < 50 | – |
| CCOC(=O)c1c(CN(C)C)n(C)c2cc(-c3cccnc3)c3c(c12)CN(C)CO3 [1.2.5(1c), hydrochloride] | – | CC50 (in vitro): 78 µM; Therapeutic index SI50 = TC50/IC50 [1]: 13; IC50 ([1]; GETYPE2A): 6 µM |
| CCOC(=O)c1c(CS(=O)(=O)c2ccc(Cl)cc2)n(C)c2cc(Br)c3c(c12)CN(C)CO3 [1.2(43)] | 77 | – |
| CCOC(=O)c1c(CSc2ccccc2)n(C)c2cc(-c3cncc4ccccc34)c(O)c(CN(C)C)c12 [1.1.1(9)] | 88 | – |
| CCOC(=O)c1c(CSc2ccccc2)n(C)c2cc(-c3cccc(N(C)C)c3)c(O)c(CN(C)C)c12 [1.2.1(3)] | 77 | – |
| CCOC(=O)c1c(CN2CCCC2)n(C2CCCCC2)c2cc(Br)c3c(c12)CN(C)CO3 [1.2(10)] | 81 | – |
| CCOC(=O)c1c(CNc2ccccc2)n(C)c2cc(-c3ccncc3)c3c(c12)CN(C)CO3 [1.2.3(8)] | 100 | – |
| CCOC(=O)c1c(CN(C)C)n(C)c2cc(-c3ccccc3)c(O)c(Cn3ccnc3)c12.Cl.Cl [1.1.3(7)] | – | CC50 (in vitro): > 100 µM; Therapeutic index SI50 = TC50/IC50 [1]: >1.4; IC50 [1]: 72 µM |
| CCOC(=O)c1c(CNc2ccccc2)n(C)c2cc(Br)c3c(c12)CN(C)CO3 [1.2(44)] | 100 | – |
| CCOC(=O)c1c(CNc2ccc(Cl)cc2)n(C)c2cc(Br)c3c(c12)CN(C)CO3 [1.2(45)] | 100 | – |
| CCOC(=O)c1c(CSc2ccccc2)n(C)c2cc(-c3cccc(O)c3)c(O)c(CN(C)C)c12 [1.2.1(2)] | 51 | – |
| CCOC(=O)c1c(CSc2ccccc2)n(C)c2cc(-c3ccncc3)c3c(c12)CN(C)CO3 [1.2.2(5)] | 100 | – |
| CCOC(=O)c1c(C[S+]([O-])c2ccccc2)n(C)c2cc(-c3cccnc3)c(O)c(CN(C)C)c12.Cl.Cl (centres unmarked) [1.1.2(42)] | – | CC50 (in vitro): > 100 µM; Therapeutic index SI50 = TC50/IC50 [1]: >5; IC50 [1]: 18 µM |
| CCOC(=O)c1c(CNc2ccncc2)n(C)c2cc(Br)c3c(c12)CN(C)CO3 [1.2(18)] | 100 | – |
| CCOC(=O)c1c(Cn2ccnc2C)n(C)c2cc(Br)c3c(c12)CN(C)CO3 [1.2(19)] | 88 | – |
| CCOC(=O)c1c(CSc2ccccc2)n(C)c2cc(-c3cncnc3)c3c(c12)CN(C)CO3 [1.2.2(7)] | 88 | – |
| Br.Br.CCOC(=O)c1c(CN2CCN(C)CC2)n(-c2ccccc2)c2ccc3c(c12)CN(C)CO3 [1.2(2)] | – | % of inhibition of influenza A virus reproduction (virus influenza A; dilution of virus 10^-3): <50% |

| SMILES | inhibition (virus influenza A) [%] | other results |
| --- | --- | --- |
| CCOC(=O)c1c(CSc2ccccc2)n(C)c2cc(C#N)c(O)c(CN3CCCC(CO)C3)c12 (centres unmarked) [1.1(11)] | < 50 | – |
| CCOC(=O)c1c(CSc2ccccc2)n(C)c2cc(-c3cc4ccccc4o3)c(O)c(CN(C)C)c12 [1.1.1(3)] | 52 | – |
| COC(=O)c1c(CSc2ccccc2)n(C)c2cc(Br)c3c(c12)CN(C)CO3 [1.2(46)] | 100 | – |
| CCOC(=O)c1c(CN2CCN(c3ccccc3)CC2)n(C2CCCCC2)c2cc(Br)c3c(c12)CN(C)CO3 [1.2(9)] | 62 | – |
| CCOC(=O)c1c(CSc2ccccc2)n(C)c2cc(-c3cc4cc(OC)ccc4[nH]3)c(O)c(CN(C)C)c12 [1.1.1(5)] | 60 | – |
| CCCCN1COc2c(Br)cc3c(c2C1)c(C(=O)OCC)c(CSc1ccccc1)n3C [1.2(33)] | 95 | – |
| CCOC(=O)c1c(CSc2ccccc2)n(C)c2cc(Br)c3c(c12)CN(Cc1ccccc1)CO3 [1.2(35)] | 98 | – |
| CCOC(=O)c1c(CSc2ccccc2)n(C)c2cc(-c3ccccc3)c(O)c(CN(C)C)c12 [1.2.1(1)] | 96 | – |
| CCOC(=O)c1c(CSc2cc(C)ccc2C#N)n(C)c2cc(Br)c3c(c12)CN(C)CO3 [1.2(36)] | < 50 | – |
| CCOC(=O)c1c(CSc2ccccc2)n(C)c2cc(-c3cccnc3)c(O)c(CN(C)C)c12 [1.2.1(5)] | 100 | – |
| CCOC(=O)c1c(CSc2ccccc2)n(C)c2cc(-c3cncnc3)c(O)c(CN(C)C)c12 [1.1.1(7), ethyl 4-((dimethylamino)methyl)-5-hydroxy-1-methyl-2-(phenylthiomethyl)-6-(pyrimidin-5-yl)-1H-indole-3-carboxylate] | 62 | – |
| CCOC(=O)c1c(CSc2ccccc2)n(C)c2cc(Br)c3c(c12)CN(C)C(c1ccccc1)O3 (centres unmarked) [1.2(39)] | 62 | – |
| CCOC(=O)c1c(CN2CCCC2)n(C)c2cc(-c3cccnc3)c(O)c(CN(C)C)c12 [1.1.5(5c), ethyl 4-((dimethylamino)methyl)-5-hydroxy-1-methyl-6-(pyridin-3-yl)-2-(pyrrolidin-1-ylmethyl)-1H-indole-3-carboxylate hydrochloride] | – | CC50 (in vitro): > 100 µM; Therapeutic index SI50 = TC50/IC50 [1]: >20; IC50 [1]: < 5 µM |
| CCOC(=O)c1c(CN2CCCCC2)n(Cc2ccccc2)c2cc(Br)c3c(c12)CN(C)CO3 [1.2(7)] | 100 | – |
| CCOC(=O)c1c(CN(C)C)n(C)c2cc(-c3cccnc3)c(O)c(CN3CCCC3)c12.Cl.Cl.Cl [1.1.5(2c), ethyl 2-((dimethylamino)methyl)-5-hydroxy-1-methyl-6-(pyridin-3-yl)-4-(pyrrolidin-1-ylmethyl)-1H-indole-3-carboxylate hydrochloride] | – | CC50 (in vitro): 75 µM; Therapeutic index SI50 = TC50/IC50 [1]: 11; IC50 [1]: 7 µM |
| CCOC(=O)c1c(CN2CCN(CCO)CC2)n(C)c2cc(Br)c3c(c12)CN(C)CO3 [1.2(14)] | 95 | – |
| CCOC(=O)c1c(CSc2ccccc2)n(C)c2cc(Br)c3c(c12)CN(CC)CO3 [1.2(31)] | 100 | – |
| CCOC(=O)c1c(CNc2ccccc2)n(C)c2cc(-c3ccccc3)c3c(c12)CN(C)CO3 [1.2.3(7)] | 90 | – |
| CCOC(=O)c1c(CSc2ccccc2)n(C)c2cc(C#N)c(O)c(CN(C)C)c12 [1.1(15)] | – | CC50 (in vitro): > 100 µM; Therapeutic index SI50 = TC50/IC50 [1]: >4; IC50 [1]: 28 µM |
| CCOC(=O)c1c(CSc2ccc(Cl)cc2)n(C)c2cc(Br)c3c(c12)CN(C)CO3 [1.2(49)] | 90 | – |
| CCOC(=O)c1c(CSc2ccccc2)n(C)c2cc(-c3cc4ccccc4[nH]3)c(O)c(CN(C)C)c12 [1.1.1(4)] | 66 | – |
| CCOC(=O)c1c(CN2CCCCC2C)n(Cc2ccccc2)c2cc(Br)c3c(c12)CN(C)CO3 (centres unmarked) [1.2(13)] | 77 | – |

| SMILES | inhibition (virus influenza A) [%] | other results |
| --- | --- | --- |
| CCOC(=O)c1c(CSc2ccccc2)n(C)c2cc(-c3cn[nH]c3)c(O)c(CN(C)C)c12 [1.1.1(2)] | 63 | – |
| CCOC(=O)c1c(CNc2ccc(C)cc2)n(C)c2cc(Br)c3c(c12)CN(C)CO3 [1.2(26)] | 100 | – |
| CCOC(=O)c1c(CN(C)CCO)n(C)c2cc(Br)c3c(c12)CN(C)CO3 [1.2(16)] | 90 | – |
| CCOC(=O)c1c(CSc2ccccc2)n(C)c2cc(-c3ccc4[nH]ncc4c3)c(O)c(CN(C)C)c12 [1.1.1(6)] | 58 | – |
| CCOC(=O)c1c(CSc2ccccc2)n(C)c2cc(-c3cccnc3)c(O)c(CN3CCCC(CO)C3)c12 (centres unmarked) [1.2.1(23)] | 95 | – |
| CCOC(=O)c1c(CN(C)C)n(-c2ccccc2)c2ccc3c(c12)CN(C)CO3 [1.2(11)] | 77 | – |
| CCOC(=O)c1c(CSc2ccccc2)n(C2CCCCC2)c2cc(Br)c3c(c12)CN(C)CO3 [1.2(41)] | 89 | – |
| CN1COc2c(Br)cc3c(c2C1)c(C(=O)OC1CCCCC1)c(CNc1ccccc1)n3C [1.2(48)] | 76 | – |
| CCCCC1Oc2c(Br)cc3c(c2CN1C)c(C(=O)OCC)c(CSc1ccccc1)n3C (centres unmarked) [1.2(37)] | 77 | – |
| CCOC(=O)c1c(CSc2ccccc2)n(C)c2cc(Br)c3c(c12)CN(C)CO3 [1.2(38)] | 100 | – |
| CCOC(=O)c1c(CN(C)C)n(C)c2cc(C#N)c3c(c12)CN(C)CO3 [1.2(29)] | – | CC50 (in vitro): > 100 µM; IC50 [1]: > 100 µM |
| CCOC(=O)c1c(COc2ccccc2)n(C)c2cc(-c3cccnc3)c(O)c(CN(C)C)c12 [1.2.1(29)] | 88 | – |
| CCOC(=O)c1c(CNc2ccccc2)n(C)c2cc(C#N)c3c(c12)CN(C)CO3 [1.2(30)] | < 50 | – |
| CCOC(=O)c1c(CSc2ccccc2)n(C)c2cc(-c3ccc(OC)nc3)c(O)c(CN(C)C)c12 [1.2.1(8)] | 81 | – |
| CCOC(=O)c1c(CS(=O)(=O)c2ccccc2)n(C)c2cc(Br)c3c(c12)CN(C)CO3 [1.2(42)] | 88 | – |
| CCOC(=O)c1c(CSc2nc3ccccc3[nH]2)n(-c2ccccc2)c2cc(Br)c3c(c12)CN(C)CO3 [1.2(32)] | 65 | – |
| CCOC(=O)c1c(CSc2ccccc2)n(C)c2cc(Br)c(O)c(CN(C)C)c12.Cl [Arbidol, ethyl 6-bromo-4-[(dimethylamino)methyl]-5-hydroxy-1-methyl-2-(phenylthiomethyl)-1H-indole-3-carboxylate hydrochloride] | – | TC50 [2]: 15 to 25 µg/mL; IC50 (influenza virus): 23.2 MκΓ/ml |
| CCOC(=O)c1c(CSc2ccccc2)n(C)c2cc(-c3ccncc3)c(O)c(CN(C)C)c12 [1.2.1(6)] | 100 | – |
| CCOC(=O)c1c(CO)n(C)c2cc(-c3cccnc3)c(O)c(CN(C)C)c12.Cl.Cl [1.1.2(35)] | – | CC50 (in vitro): > 100 µM; Therapeutic index SI50 = TC50/IC50 [1]: >16; IC50 [1]: 6 µM |
| CCOC(=O)c1c(CN2CCN(C)CC2)n(Cc2ccccc2)c2cc(Br)c3c(c12)CN(C)CO3 [1.2(6)] | 92 | – |
